Test results: patent US8962263B2, “Methods and compositions for detecting the activation state of multiple proteins in single cells” (The Board of Trustees of the Leland Stanford Junior …, priority 2001, dated 2015)

Tested on: p44/42 MAPK
Assay: intracellular phospho-p44/42 MAPK by flow cytometry in ICAM-2 treated Jurkat cells
Assay type: cell-based, human
Conditions: chemical agents 10 μM, EDTA 1 mM; mAbs titrated prior to ICAM-2
Text: A) Mean fluorescent intensity values (MFI) of ICAM-2-FITC (adhesion) and mAb24-Alexa633, (LFA-1, activation) in treated Jurkat cells (as above). Control unstimulated and/or compound pretreated values were subtracted. B) Top panel: Intracellular phospho-p44/42, MAPK detection as a function of ICAM-2, dose in Jurkat cells by flow cytometry (see Material and Methods). Mean fluorescent intensity values (MFI) were plotted±standard deviation (SD). Bottom panel: ICAM-2, treated Jurkat cells were stained for intracellular phospho-p44/42, MAPK as described above. mAbs to β2, and αL, integrins (10, μg/ml, 10, minutes) were titrated prior to ICAM-2, treatment as indicated and plotted for MFI±SD. C) ICAM-2, induced p44/42, MAPK activity is blocked by β2, and αL, integrin antibodies as determined by a p44/42 MAPK kinase assay. Conditions for induction and inhibition are as described above. Recombinant active p44/42, MAPK served as an internal positive control (denoted by “+”). D) Inhibition and activation profile for intracellular phospho-p44/42, by flow cytometry in the presences of chemical agents (10, μM), EDTA (1, mM), or PMA, ionomycin and ICAM-2, stimulus (as indicated above). MFI values±SD are plotted.
Intracellular and extracellular staining was performed as described (Perez and Nolan, 2002). Intracellular probes for active kinases were made by conjugating phospho-specific antibodies to the ALEXA FLUOR® dye series as described and used in phospho-protein optimized conditions (Perez and Nolan, 2002). Kinetic analyses was performed by direct application of fixation buffer in time synchronized 96-wells maintained at 37° C. Intracellular actin and microtubule staining was performed using phalloidin-Alexa633 and taxol-Alexa546 dyes (Molecular Probes). Adhesion and clustering assays were performed using ICAM-2-FITC as described in text. LFA-1 activation was assessed by either mAb24-Alexa633 or mAb24-Alexa546 conjugate, surface stained at 37° C. Flow cytometry data are representative of 3 independent experiments of 10^6 cells/sample. 10-50,000 events were collected and manually calibrated on a FACSCalibur™ machine. Data plotted in bar graph format is expressed as geometric mean fluorescence intensity (MFI) and normalized for isotype controls. Log ratios are defined as the MFI of stimulus to the MFI of unstimulated cells. Data was analyzed using Flowjo™ software (Treestar).

CN(C)CCCn1cc(C2=C(c3c[nH]c4ccccc34)C(=O)NC2=O)c2ccccc21 [bisindolymaleimide I]
effect on ICAM-2 induced p44/42 MAPK phosphorylation: diminished
